Among the data in patent US12528818B2, “Compositions and methods for inhibition of RAS” (Leidos Biomedical Research, Inc., priority 2021, dated 2026) are IC50 values, retold here.

Read-outs that look alike come from different tables or passages of the source.

This assay concerns pERK in NCI-H358 cells. Kind of assay: Cell-based pERK HTRF assay (pERK inhibition in H358 cells). The following applies: pERK inhibition IC50, NCI-H358 cells, 30 min incubation, read-out: PERK in H358 cell. How it is done: On Day 1, cells (NCI-H358) were seeded into 96-well plates at 4×10^4 cells/well in complete growth media (RPMI, 10% FBS).
The source plate was created with compounds diluted in media at 5-fold the final assay concentration. […] 20 μL was transferred onto the cell plates (final volume in wells was 100 μL). Plates were harvested after 30 min incubation by aspirating media and adding kit-supplied 1× supplemented lysis buffer to all wells (75 μl per well). Plates were then placed on a plate shaker and incubated at 850 rpm for an additional 30 min.
Antibody mixture solution was prepared by diluting aliquoted d2 and Eu Cryptate antibodies 1:20 in kit supplied detection buffer, then mixed the diluted antibodies solutions (1:1 v:v).
Samples were homogenized by pipetting up and down and then transferred (16 μL of cell lysates) from the 96-well cell culture plate to two wells of the HTRF 384-well detection plate containing the antibody solution. Plates were centrifuged (524 g for 1 min) and allowed to incubate between 4 and 24 h at room temperature. Maximum signal is reached after 4 h incubation time and remains stable over a period of 24 hours. Therefore, readings can be made between 4 and 24 h of incubation.

As for `C=CC(=O)N1CC[C@@H](N(C)c2nc(OCC34CCCN3CCC4)nc3c(F)c(-c4ccc(F)c5sc(N)nc45)c(C(F)(F)F)cc23)C1` (atropisomer, axis not shown) [Compound 221], the IC50 is more than 1000 nM.
Consider `C=CC(=O)N1CC[C@@H](N(C)c2nc(OCC34CCCN3CCC4)nc3c(F)c(-c4ccc(F)c5sc(N)nc45)c(C(F)(F)F)cc23)C1` (atropisomer, axis not shown) [Compound 222], for which the IC50 was in the range of 100 to 1000 nM.
Same read-out and setting: next, `C=CC(=O)N1CC[C@@H](N(C)c2nc(OC[C@@H]3CC(F)(F)CN3C)nc3c(F)c(-c4ccc(F)c5sc(N)nc45)c(C(F)(F)F)cc23)C1` (atropisomer, axis not shown) [Compound 228]: less than 100 nM; `C=CC(=O)N1CC[C@@H](N(C)c2nc(OC[C@@H]3CC(F)(F)CN3C)nc3c(F)c(-c4ccc(F)c5sc(N)nc45)c(C(F)(F)F)cc23)C1` (atropisomer, axis not shown) [Compound 229]: more than 1000 nM.
`C=CC(=O)N1CC[C@@H](N(C)c2nc(OC[C@@H]3C[C@@H](F)CN3C)nc3c(F)c(-c4ccc(F)c5sc(N)nc45)c(C(F)(F)F)cc23)C1` (atropisomer, axis not shown) [Compound 231]: the IC50 (Homo sapiens, NCI-H358, 0.5 h) lay within 100 to 1000 nM.
As for `C=CC(=O)N1CC[C@@H](N(C)c2nc(OC[C@@H]3C[C@@H](F)CN3C)nc3c(F)c(-c4ccc(F)c5sc(N)nc45)c(C(F)(F)F)cc23)C1` (atropisomer, axis not shown) [Compound 232], the IC50 fell in the range of 100 to 1000 nM.
Consider `C=CC(=O)N1CC[C@@H](N(C)c2c(C#N)c(OC[C@@]34CCCN3C[C@H](F)C4)nc3c(F)c(-c4ccc(F)c5sc(N)nc45)c(Cl)cc23)C1` (atropisomer, axis not shown) [Compound 234], for which the IC50 (Homo sapiens, NCI-H358, 0.5 h) is more than 1000 nM.
For `C=CC(=O)N1CCC[C@@H](N(C)c2nc(OC[C@@]34CCCN3C[C@H](F)C4)nc3c(F)c(-c4ccc(F)c5sc(N)nc45)c(Cl)cc23)C1` (atropisomer, axis not shown) [Compound 241], the IC50 (Homo sapiens, NCI-H358, 0.5 h) is less than 100 nM.
Turning to `C=CC(=O)N1CCC[C@@H](N(C)c2nc(OC[C@@]34CCCN3C[C@H](F)C4)nc3c(F)c(-c4ccc(F)c5sc(N)nc45)c(Cl)cc23)C1` (atropisomer, axis not shown) [Compound 242], the IC50 was in the range of 100 to 1000 nM.
The same measure, in the same setting: the value for `C=CC(=O)N1C[C@H](N(C)c2ncnc3c(F)c(-c4ccc(F)c5sc(N)nc45)c(C(F)(F)F)cc23)C[C@H]1C` (atropisomer, axis not shown) [Compound 250] was 100 to 1000 nM.
With `C=CC(=O)N1C[C@H](N(C)c2ncnc3c(F)c(-c4ccc(F)c5sc(N)nc45)c(C(F)(F)F)cc23)C[C@H]1C` (atropisomer, axis not shown) [Compound 251], the IC50 is more than 1000 nM.
As to `C=CC(=O)N1CC[C@@H](N(C)c2nc(OC[C@@H]3CC4(CC4)CN3C)nc3c(F)c(-c4ccc(F)c5sc(N)nc45)c(C(F)(F)F)cc23)C1` (atropisomer, axis not shown) [Compound 255], the IC50 (Homo sapiens, NCI-H358, 0.5 h) was less than 100 nM.
On to `C=CC(=O)N1CC[C@@H](N(C)c2nc(OC[C@@H]3CC4(CC4)CN3C)nc3c(F)c(-c4ccc(F)c5sc(N)nc45)c(C(F)(F)F)cc23)C1` (atropisomer, axis not shown) [Compound 256], for which the IC50 was less than 100 nM.
For the molecule `C=CC(=O)N1C[C@H](N(C)c2ncnc3c(F)c(-c4ccc(F)c5sc(N)nc45)c(C(F)(F)F)cc23)C2(CC2)C1` (atropisomer, axis not shown) [Compound 263], where the note is “Homo sapiens, NCI-H358, 0.5 h”, the IC50 is more than 1000 nM.
In the case of `C=CC(=O)N1C[C@H](N(C)c2ncnc3c(F)c(-c4ccc(F)c5sc(N)nc45)c(C(F)(F)F)cc23)C2(CC2)C1` (atropisomer, axis not shown) [Compound 264], the IC50 is more than 1000 nM.
For `C=CC(=O)N1C[C@H](C)N(c2nc(OC[C@@]34CCCN3C[C@H](F)C4)nc3c(F)c(-c4ccc(F)c5sc(N)nc45)c(C(F)(F)F)cc23)C[C@H]1C` (atropisomer, axis not shown) [Compound 267], the IC50 was less than 100 nM.
`C=CC(=O)N1C[C@H](C)N(c2nc(OC[C@@]34CCCN3C[C@H](F)C4)nc3c(F)c(-c4ccc(F)c5sc(N)nc45)c(C(F)(F)F)cc23)C[C@H]1C` (atropisomer, axis not shown) [Compound 268]: the IC50 is less than 100 nM.
Consider `C=CC(=O)N1CC[C@@H](N(C)c2nc(OC[C@]34CCCN3C[C@H](OC)C4)nc3c(F)c(-c4ccc(F)c5sc(N)nc45)c(C(F)(F)F)cc23)C1` (atropisomer, axis not shown) [Compound 277], for which the IC50 (Homo sapiens, NCI-H358, 0.5 h) is less than 100 nM.
`C=CC(=O)N1CC[C@@H](N(C)c2nc(OC[C@]34CCCN3C[C@H](OC)C4)nc3c(F)c(-c4ccc(F)c5sc(N)nc45)c(C(F)(F)F)cc23)C1` (atropisomer, axis not shown) [Compound 278]: the IC50 fell in the range of 100 to 1000 nM.
Consider `C=CC(=O)N1C[C@H](C)N(c2nc(OC[C@@]34CCCN3C[C@H](OC)C4)nc3c(F)c(-c4ccc(F)c5sc(N)nc45)c(C(F)(F)F)cc23)C[C@H]1C` (atropisomer, axis not shown) [Compound 289], for which, where the note is “Homo sapiens, NCI-H358, 0.5 h”, the IC50 is less than 100 nM.
The same measure, in the same setting: the value for `C=CC(=O)N1[C@@H](C)CN(c2nc(OC[C@@]34CCCN3C[C@H](OC)C4)nc3c(F)c(-c4ccc(F)c5sc(N)c(C#N)c45)c(C(F)(F)F)cc23)C[C@@H]1C` (atropisomer, axis not shown) [Compound 364] was less than 100 nM; that for `C=CC(=O)N1CC[C@H](N(C)c2nc(OC[C@@]34CCCN3C[C@H](F)C4)nc3c(F)c(-c4ccc(F)c5sc(N)c(C#N)c45)c(Cl)cc23)[C@@H]1C` (atropisomer, axis not shown) [Compound 467] was less than 100 nM.
Regarding `C=CC(=O)N1CC[C@@H](N(c2nc(OC[C@@]34CCCN3C[C@H](F)C4)nc3c(F)c(-c4ccc(F)c5sc(N)nc45)c(C(F)(F)F)cc23)C2CC2)C1` (single isomer, unassigned) [Compound 236], the IC50 is less than 100 nM.
Turning to `C=CC(=O)N1CC[C@@H](N(c2nc(OC[C@@]34CCCN3C[C@H](F)C4)nc3c(F)c(-c4ccc(F)c5sc(N)nc45)c(C(F)(F)F)cc23)C2CC2)C1` (single isomer, unassigned) [Compound 237], the IC50 was more than 1000 nM.
With `C=CC(=O)N1CC[C@@H](N(C)c2nc(OC[C@@]34CCCN3C[C@H](F)C4)nc3c(F)c(-c4ccc(F)c5sc(N)nc45)c(C(F)(F)F)cc23)C1` (single isomer, unassigned) [Compound 239], where the note is “Homo sapiens, NCI-H358, 0.5 h”, the IC50 was less than 100 nM.
Consider `C=CC(=O)N1CC[C@@H](N(C)c2nc(OC[C@@]34CCCN3C[C@H](F)C4)nc3c(F)c(-c4ccc(F)c5sc(N)nc45)c(C(F)(F)F)cc23)C1` (single isomer, unassigned) [Compound 240], for which the IC50 lay in the range of 100 to 1000 nM.
As to `C=CC(=O)N1CC[C@@H](Nc2nc(OC[C@@]34CCCN3C[C@H](F)C4)nc3c(F)c(-c4ccc(F)c5sc(N)nc45)c(C(F)(F)F)cc23)C1` (single isomer, unassigned) [Compound 271], the IC50 was less than 100 nM.
Same read-out and setting: the value for `C=CC(=O)N1CC[C@@H](Nc2nc(OC[C@@]34CCCN3C[C@H](F)C4)nc3c(F)c(-c4ccc(F)c5sc(N)nc45)c(C(F)(F)F)cc23)C1` (single isomer, unassigned) [Compound 272] was more than 1000 nM.
Consider `C=CC(=O)N1CC[C@@H](N(C)c2nc(OC[C@@]34CCCN3C[C@H](F)C4)nc3c(Cl)c(-c4ccc(F)c5sc(N)nc45)c(C(F)(F)F)cc23)C1` (single isomer, unassigned) [Compound 302], for which the IC50 (Homo sapiens, NCI-H358, 0.5 h) is less than 100 nM.
